# Measurements: publication PMC7112168 (PLoS Pathogens, 2020)
# Molecular target: T1, PelD^Bc (PelD^Bc150-407; also PelD^Bc170-403)
# T1 construct: gene BCE_5583
# Settings: 20 mM HEPES pH 8.0, 150 mM NaCl, 5% glycerol, 1 mM DTT; 25 μM protein, 450 μM c-di-GMP in syringe; single-site model; proposed I-site (RxxD)
smiles,measurement,value
Nc1nc2c(ncn2[C@@H]2O[C@@H]3COP(=O)(O)O[C@H]4[C@@H](O)[C@H](n5cnc6c(=O)[nH]c(N)nc65)O[C@@H]4COP(=O)(O)O[C@H]3[C@H]2O)c(=O)[nH]1 [c-di-GMP],Kd,0.103 ± 0.014 µM
